Test results taken from PubChem BioAssay (NCI).
Several values for one entry are separate records, joined by “and”; a condition that tells them apart may be missing. Identical values can stand only once.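 Where inhibition never reached the appropriate level, the endpoint shown equals the highest concentration tested. Otherwise, values were interpolated linearly from a five-concentration, 48-hour dose response in 96-well plates. Abbreviation: GI50, concentration required for 50% inhibition of growth. Definition used: TGI = concentration required for complete inhibition of growth.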

Legend:
Assay in all cases: growth of human tumour cells (NCI), 48 h
HS 578T breast = test system: HS 578T breast
PC-3 prostate = test system: PC-3 prostate
A549 NSCLC = test system: A549 NSCLC
NCI-H460 lung = test system: NCI-H460 lung
SN12C renal = test system: SN12C renal
UACC-257 melanoma = test system: UACC-257 melanoma
TK-10 renal = test system: TK-10 renal
MDA-N = test system: MDA-N
HCT-116 colon = test system: HCT-116 colon
MOLT-4 leukemia = test system: MOLT-4 leukemia

| SMILES | TGI (HS 578T breast) [µM] | TGI (PC-3 prostate) | TGI (A549 NSCLC) | TGI (NCI-H460 lung) | TGI (SN12C renal) | TGI (UACC-257 melanoma) | TGI (TK-10 renal) [µM] | TGI (MDA-N) | TGI (HCT-116 colon) [µM] | TGI (MOLT-4 leukemia) [µM] | GI50 (HS 578T breast) [µM] | GI50 (UACC-257 melanoma) [µM] | GI50 (TK-10 renal) [µM] |
| --- | --- | --- | --- | --- | --- | --- | --- | --- | --- | --- | --- | --- | --- |
| CCCCC[C@@H]1OC(=O)[C@@]2(CC3c4ccccc4C2c2ccccc23)[C@H]1C(=O)OC | > 100 | > 100 µM | > 100 µM | > 100 µM | > 100 µM | 86.4 µM | > 100 | > 100 µM | > 100 | – | – | – | – |
| O=c1c2cc(Cl)ccc2n2nnc3ccc(NCCNCCO)c1c32 | – | 2.75 µM | 2.58 µM | 1.58 µM | 2.88 µM | 3.6 µM | 6.24 | 2.32 µM | 2.33 | 6.59 | – | – | – |
| N#Cc1nc(Cc2cccs2)oc1N | > 100 | > 100 µM | > 100 µM | – | > 100 µM | > 100 µM | > 100 | > 100 µM | > 100 | > 100 | – | – | – |
| Cc1ccc(Oc2cc(C)ccc2P(=O)(O)O)cc1 | > 100 | > 100 µM | > 100 µM | – | > 100 µM | > 100 µM | > 100 | > 100 µM | > 100 | > 100 | – | – | – |
| OCC(CO)CC1COc2ccccc2O1 (stereo not given) | > 10 | > 10 µM | > 10 µM | > 10 µM | > 10 µM | – | > 10 | > 10 µM | > 10 | > 10 | – | – | – |
| CN(C)CCCN1C(=O)N(CCCN(C)C)c2c3cc(O)ccc3nc3c([N+](=O)[O-])ccc1c23 | 60 | 24 µM | 39.6 µM | 70.4 µM | 49.1 µM | > 100 µM | > 100 | > 100 µM | 38.2 | – | – | – | – |
| CC(=O)Oc1ccc(-c2c(OC(C)=O)c(OC(C)=O)c(-c3ccc(OC(C)=O)c(OC(C)=O)c3)c(OC(C)=O)c2OC(C)=O)cc1 | – | 31 µM | 37.8 µM | > 100 µM | 35.1 µM | 29.1 µM | 29.6 | 31.5 µM | 40.2 | 44.3 | – | – | – |
| CC(=O)Nc1oc(C)nc1C#N | > 100 | > 100 µM | > 100 µM | – | > 100 µM | > 100 µM | > 100 | > 100 µM | > 100 | > 100 | – | – | – |
| O=C1C(=O)C(CCCO)(CCCO)CCCCCCCCC1(CCCO)CCCO | > 100 | > 100 µM | > 100 µM | > 100 µM | > 100 µM | > 100 µM | > 100 | > 100 µM | > 100 | – | – | – | – |
| O=C(n1c(=O)n(-c2ccc([N+](=O)[O-])cc2)c(=O)n1C(=O)C(Cl)(Cl)Cl)C(Cl)(Cl)Cl | > 100 | > 100 µM | > 100 µM | > 100 µM | > 100 µM | > 100 µM | > 100 | > 100 µM | > 100 | – | – | – | – |
| CCCCN=C(OC1C=CCCC1)SC (stereo not given) | – | > 100 µM | > 100 µM | – | > 100 µM | > 100 µM | > 100 | > 100 µM | > 100 | > 100 | – | – | – |
| CC(C)(C)OC(=O)N[C@@H](Cc1ccccc1)C(=O)N1CC[C@@H](C(=O)N2[C@H]3CC4CC[C@@]3(CS2(=O)=O)C4(C)C)N1 | > 100 | > 100 µM | > 100 µM | > 100 µM | > 100 µM | > 100 µM | – | > 100 µM | > 100 | > 100 | – | – | – |
| C=C1C(=O)O[C@H]2[C@@H](O)[C@H](C)CCC/C(C)=C/CC[C@@]3(C)O[C@@H]3C[C@@H]12 | > 100 | > 57.6 µM | > 60.9 µM | 16.8 µM | 22.6 µM | 22.4 µM | 3.95 | 25.6 µM | 12.4 | – | – | – | – |
| Nc1ncnc2c(C3OC(CO)C(O)C3O)c[nH]c12 (stereo not given) | – | 0.128 µM and 0.324 µM | 0.0775 µM and 0.434 µM | 0.048 µM and 0.0128 µM | 0.0946 µM and 0.537 µM | 0.276 µM and 0.382 µM | 0.471 | 0.158 µM and 0.138 µM | 0.16 | – | 0.0247 | < 0.0155 | 0.0163 |
| CC(C)=CCC/C(C)=C/CCC1(C)C2COC(=O)C21 (stereo not given) | – | > 100 µM | – | > 100 µM | > 100 µM | > 100 µM | > 100 | > 100 µM | > 100 | > 100 | – | – | – |
| Cc1cn(C2CC(O)C(Cn3cc(Cn4nc(Br)c(=O)[nH]c4=O)nn3)O2)c(=O)[nH]c1=O (stereo not given) | > 100 | > 100 µM | > 100 µM | – | > 100 µM | > 100 µM | > 100 | > 100 µM | > 100 | > 100 | – | – | – |
| COc1cccc(C2c3cc4c(cc3OC(N3CCOCC3)C2C)OCO4)c1 (stereo not given) | 60.1 | 44.4 µM | 51.9 µM | 37.7 µM | > 100 µM | > 100 µM | – | 10.7 µM | 34.9 | 17.6 | – | – | – |
| O=c1oc2ccccc2cc1-c1nc2ccccc2s1 | 20.4 | > 84.3 µM | 16.8 µM | 53 µM | > 50.7 µM | – | 33.5 | > 61.1 µM | – | – | – | – | – |
